≈ marks a conversion by molar mass, not a printed value. Calls of active or inactive are those of the source. The rule behind the calls is not given here. Residues, ends and D or L forms follow the SMILES beside them. *: point of attachment. X1 = CN(C)c1ccc2c(-c3ccc(C(=O)*)cc3C(=O)[O-])c3ccc(N(C)C)cc3[o+]c2c1; Octanoyl = CCCCCCCC(=O)*
Legend:
[1] = Clearance in Sprague-Dawley rat at 3 mg/kg,iv administration measured upto 24 hr by LC-MS/MS analysis; assay type: ADME, organism-based; details: in vivo
[2] = Toxicity in male Sprague-Dawley rat assessed as reduction in body weight at 20 mg/kg,iv administration and observed on day 2; assay type: organism-based; details: in vivo, 48 h, time 2 day
[3] = Nephrotoxicity in Sprague-Dawley rat assessed as […] in creatinine level at 30 mg/kg,iv administration for 1 hr and measured after 25 hrs; assay type: toxicity, organism-based; details: in vivo, 26 h
Cell membrane [4] = assay: Induction of outer membrane permeabilization in Escherichia coli ATCC 25922 assessed as increase in fluorescence by measuring fold change by NPN-dye based fluorescence analysis; assay type: subcellular
[5] = Volume of distribution in Sprague-Dawley rat at 3 mg/kg,iv administration measured upto 24 hr by LC-MS/MS analysis; assay type: ADME, organism-based; details: in vivo
[6] = Toxicity in female Sprague-Dawley rat assessed as reduction in body weight at 20 to 60 mg/kg,iv administration observed on day 4; assay type: organism-based; details: in vivo, 96 h, dose 20-60 mg/kg, time 4 day
[7] = AUClast in CD1 mouse at 10 mg/kg,iv administration measured upto 1 hr by LC-MS/MS analysis; assay type: ADME, organism-based; parameters: time < 1 hrs, dose 10 mg/kg, route iv; details: in vivo
[8] = Clearance in CD1 mouse at 1 mg/kg,iv administration measured upto 1 hr by LC-MS/MS analysis; assay type: ADME, organism-based; details: in vivo
Escherichia coli [9] = assay: (§1) Potentiation of rifampicin induced antibacterial activity against NDM1-producing carbapenem-resistant Escherichia coli infected CD1 mouse sepsis model assessed as reduction in bacterial colony forming unit in lung tissue at 25 mg/kg,SC administrated after 2 hrs of post-infection in presence of rifampicin; assay type: functional, organism-based
[10] = Clearance in CD1 mouse at 10 mg/kg,iv administration measured upto 1 hr by LC-MS/MS analysis; assay type: ADME, organism-based; details: in vivo
Klebsiella pneumoniae [11] = assay: Antibacterial activity against Klebsiella pneumoniae ATCC 700603 assessed as inhibition of bacterial growth incubated for 18 hrs by two fold serial dilution assay; assay type: functional
[12] = Toxicity in female Sprague-Dawley rat assessed as no observed adverse effect level at iv administration and observed on day 14; assay type: organism-based; details: in vivo, time 14 day
Acinetobacter baumannii [13] = assay: Antibacterial activity against Acinetobacter baumannii ATCC 17978 assessed as inhibition of bacterial growth incubated for 18 hrs by two fold serial dilution assay; assay type: functional
[14] = AUClast in CD1 mouse at 3 mg/kg,iv administration measured upto 1 hr by LC-MS/MS analysis; assay type: ADME, organism-based; parameters: dose 3 mg/kg, time < 1 hrs, route iv; details: in vivo
[15] = Hydrophobicity of the compound assessed as retention time by reversed-phase HPLC analysis; assay type: physicochemical
[16] = Toxicity in male Sprague-Dawley rat assessed as reduction in body weight at 60 mg/kg,iv administration observed on day 14 relative to control; assay type: organism-based; parameters: scale not given: the % may be the effect or the level left; details: in vivo, 336 h, time 14 day
Escherichia coli [17] = assay: Antibacterial activity against Escherichia coli ATCC 25922 assessed as inhibition of bacterial growth incubated for 18 hrs in presence of rifampicin with calcium and Mg2+ broth media by two fold serial dilution assay; assay type: functional, organism-based
Escherichia coli [18] = assay: Potentiation of rifampicin induced antibacterial activity against NDM1-producing carbapenem-resistant Escherichia coli infected CD1 mouse sepsis model assessed as reduction in bacterial colony forming unit in blood at 25 mg/kg,SC administrated after 6 hrs of post-infection in presence of rifampicin; assay type: functional
[19] = AUClast in Sprague-Dawley rat at 3 mg/kg,iv administration measured upto 24 hr by LC-MS/MS analysis; assay type: ADME, organism-based; parameters: time < 24 hrs, dose 3 mg/kg, route iv; details: in vivo
[20] = Hemolytic activity in human blood assessed as hemolysis incubated for 6 hrs by microplate reader analysis; assay type: toxicity, tissue-based
[21] = AUClast in CD1 mouse at 1 mg/kg,iv administration measured upto 1 hr by LC-MS/MS analysis; assay type: ADME, organism-based; parameters: time < 1 hrs, dose 1 mg/kg, route iv; details: in vivo
Escherichia coli [22] = assay: as §1, with “after 6” for “after 2”; assay type: functional, organism-based
Escherichia coli [23] = assay: Antibacterial activity against Escherichia coli ATCC 25922 assessed as fold increase in bacterial growth inhibition incubated for 1 hr by propidium iodide staining based fluorescence assay; assay type: functional
[24] = Toxicity in female Sprague-Dawley rat assessed as reduction in body weight at 20 to 60 mg/kg,iv administration observed on day 2; assay type: organism-based; details: in vivo, 48 h, dose 20-60 mg/kg, time 2 day
[25] = Clearance in CD1 mouse at 3 mg/kg,iv administration measured upto 1 hr by LC-MS/MS analysis; assay type: ADME, organism-based; details: in vivo
Escherichia coli [26] = assay: Antibacterial activity against Escherichia coli ATCC 25922 assessed as inhibition of bacterial growth incubated for 18 hrs by two fold serial dilution assay; assay type: functional
[27] = Cytotoxicity against human HK-2 cells assessed as cell growth inhibition incubated for 24 hrs by WST-1 reagent microplate reader assay; assay type: toxicity, cell-based
Acinetobacter baumannii [28] = assay: Antibacterial activity against Acinetobacter baumannii ATCC 17978 assessed as inhibition of bacterial growth incubated for 18 hrs in presence of rifampicin with calcium and Mg2+ broth media by two fold serial dilution assay; assay type: functional, organism-based
[29] = Toxicity in male Sprague-Dawley rat assessed as reduction in body weight at 20 mg/kg,iv administration observed on day 14; assay type: organism-based; details: in vivo, 336 h, time 14 day
Escherichia coli [30] = assay: Potentiation of rifampicin induced antibacterial activity against NDM1-producing carbapenem-resistant Escherichia coli infected CD1 mouse sepsis model assessed as reduction in bacterial colony forming unit in blood at 25 mg/kg,SC administrated after 2 hrs of post-infection in presence of rifampicin; assay type: functional
[31] = Toxicity in male Sprague-Dawley rat assessed as reduction in body weight at 40 mg/kg,iv administration observed on day 14 relative to control; assay type: organism-based; parameters: scale not given: the % may be the effect or the level left; details: in vivo, 336 h, time 14 day
[32] = Toxicity in male Sprague-Dawley rat assessed as no observed adverse effect level at iv administration and observed on day 14; assay type: organism-based; details: in vivo, time 14 day
[33] = Nephrotoxicity in Sprague-Dawley rat assessed as increase in blood urea nitrogen level at 30 mg/kg,iv administration for 1 hr and measured after 25 hrs; assay type: toxicity, organism-based; details: in vivo, 26 h
Klebsiella pneumoniae [34] = assay: Antibacterial activity against Klebsiella pneumoniae ATCC 700603 assessed as inhibition of bacterial growth incubated for 18 hrs in presence of rifampicin with calcium and Mg2+ broth media by two fold serial dilution assay; assay type: functional, organism-based
[35] = Drug localization in Escherichia coli ATCC 25922 assessed as increase in fluorescence at membrane at […] by fluorescence-activated cell sorting analysis; assay type: ADME, cell membranes; details: dose 0.13 µM
[36] = Drug localization in Acinetobacter baumannii ATCC 17978 assessed as increase in fluorescence at cytosol at 5 uM incubated for 30 mins by confocal laser scanning microscopy; assay type: ADME, subcellular; details: 0.5 h
Cell membrane [37] = assay: Induction of outer membrane disruption in Acinetobacter baumannii ATCC 17978 at 5 uM incubated for 30 mins by confocal laser scanning microscopy; assay type: subcellular
[38] = Drug localization in Escherichia coli ATCC 25922 assessed as increase in fluorescence at membrane at […] incubated for 30 mins by confocal laser scanning microscopy; assay type: ADME, cell membranes; details: 0.5 h, dose 0.63 µM

With `CCCCCCCC(=O)N[C@@H](CCCCN)C(=O)N[C@@H](CCCCN)C(=O)N[C@@H](C)C(=O)N[C@@H](CC(C)C)C(=O)N[C@@H](CCCCN)C(=O)N[C@@H](CC(C)C)C(=O)N[C@@H](C)C(=O)N[C@@H](CCCCN)C(=O)N[C@@H](CCCCN)C(=O)N1CCC[C@H]1C(=O)N[C@@H](CC(C)C)C(=O)N[C@@H](CCCCN)C(=O)N[C@@H](CC(C)C)C(=O)N[C@@H](CC(C)C)C(=O)N[C@@H](CCCCN)C(N)=O` (HELM PEPTIDE1{[CCCCCCCC(=O)[*:2]].K.K.A.L.K.L.A.K.K.P.L.K.L.L.K.[am]}$$$$V2.0) as the compound, how does the clearance [1] read?
Its clearance is 192 mL/min/kg.

What about the Activity [2] of the same compound?
The Activity was “Toxic”.

What about the Activity [3] of the same compound?
Its Activity is 0.28 mg/dL.

And the fold change (FC) (Cell membrane [4])?
Its fold change (FC) is 10.

And the Vd [5]?
Its Vd is 3.07 L/kg.

What about the Activity [6] of the same compound?
Its Activity is “Non-Toxic”.

What about the AUClast [7] of the same compound?
The AUClast was 941 ng·h/mL.

What about the clearance [8] of the same compound?
Its clearance is 218 mL/min/kg.

And the Activity (Escherichia coli [9])?
The Activity was “Active”.

What about the clearance [10] of the same compound?
Its clearance is 190 mL/min/kg.

What about the MIC (Klebsiella pneumoniae [11]) of the same compound?
The MIC was > 80 µM.

What about the NOAEL at 336 h [12] of the same compound?
The NOAEL at 336 h was 60 mg/kg.

What about the MIC (Acinetobacter baumannii [13]) of the same compound?
The MIC was 20 µM (≈ 36.9 µg/mL).

And the AUClast [14]?
The AUClast was 263 ng·h/mL.

And the Retention_time [15]?
The Retention_time was 18.1 min.

And the Activity [16]?
Its Activity is 9%.

And the Activity (Escherichia coli [17])?
The Activity was “inactive”.

And the Activity (Escherichia coli [18])?
The Activity was >4 log10CFU.

What about the AUClast [19] of the same compound?
The AUClast was 246 ng·h/mL.

And the MHC10 [20]?
The MHC10 was > 160 µM.

What about the AUClast [21] of the same compound?
The AUClast was 88.9 ng·h/mL.

And the Activity (Escherichia coli [22])?
The Activity was “Active”.

And the “fold change (FC)” value (Escherichia coli [23])?
Its value is 10.

What about the Activity [24] of the same compound?
Its Activity is “Toxic”.

What about the clearance [25] of the same compound?
Its clearance is 182 mL/min/kg.

And the MIC (Escherichia coli [26])?
Its MIC is > 80 µM.

What about the IC50 at 24 h [27] of the same compound?
The IC50 at 24 h was 86.9 µM.

What about the Activity (Acinetobacter baumannii [28]) of the same compound?
The Activity was “inactive”.

What about the Activity [29] of the same compound?
Its Activity is “Non-Toxic”.

And the Activity (Escherichia coli [30])?
Its Activity is >4 log10CFU.

What about the Activity [31] of the same compound?
Its Activity is 9%.

And the NOAEL at 336 h [32]?
The NOAEL at 336 h was 20 mg/kg.

What about the Activity [33] of the same compound?
The Activity was 19 mg/dL.

What about the Activity (Klebsiella pneumoniae [34]) of the same compound?
The Activity was “inactive”.

Which Drug uptake [35] does the source give for `CCCCCCCC(=O)N[C@@H](CCCCNC(=O)c1ccc(-c2c3ccc(N(C)C)cc3[o+]c3cc(N(C)C)ccc23)c(C(=O)[O-])c1)C(=O)N[C@@H](CCCCN)C(=O)N[C@@H](C)C(=O)N[C@@H](CC(C)C)C(=O)N[C@@H](CCCCN)C(=O)N[C@@H](CC(C)C)C(=O)N[C@@H](C)C(=O)N[C@@H](CCCCN)C(=O)N[C@@H](CCCCN)C(=O)N1CCC[C@H]1C(=O)N[C@@H](CC(C)C)C(=O)N[C@@H](CCCCN)C(=O)N[C@@H](CC(C)C)C(=O)N[C@@H](CC(C)C)C(=O)N[C@@H](CCCCN)C(N)=O` (Octanoyl-K(X1)KALKLAKKPLKLLK-NH2) here?
The Drug uptake was “Active”.

What about the Drug uptake [36] of the same compound?
The Drug uptake was “Active”.

And the Activity (Cell membrane [37])?
The Activity was “Active”.

What about the Drug uptake [38] of the same compound?
The Drug uptake was “Active”.
